For one compound, IC50 results are on record in article PMC6407917, “Identification of GSK3186899/DDD853651 as a Preclinical Development Candidate for the Treatment of Visceral Leishmaniasis” (Journal of Medicinal Chemistry, 2018).

Holding throughout (assay): biochemical
Common to all, as to design: species or system HEK293/K-562/placenta mixed human extract; Kinobeads chemoproteomic competition binding, quantified by TMT LC-MS/MS, dose response up to 20 uM

Assay [1] addresses MAPKAPK5 (Homo sapiens, UniProt Q8IW41).
The target of assay [2] is MKNK2 (Homo sapiens, UniProt Q9HBH9).
Assay [3] addresses STK4 (Homo sapiens, UniProt Q13043).
Assay [4] concerns the target SLK (Homo sapiens, UniProt Q9H2G2).
Assay [5] addresses NRK (Homo sapiens, UniProt Q7Z2Y5).
Assay [6] concerns the target LCK (Homo sapiens, UniProt P06239).
In assay [7] the target is WNK1 (Homo sapiens, UniProt Q9H4A3).
In assay [8] the target is AKT1 (Homo sapiens, UniProt P31749).
Assay [9] has as its target SIK1 (Homo sapiens, UniProt P57059).
Assay [10] deals with BMPR1A (Homo sapiens, UniProt P36894).
In assay [11] the target is PDPK1 (Homo sapiens, UniProt O15530).
The target of assay [12] is PIK3C3 (Homo sapiens, UniProt Q8NEB9).
Assay [13] deals with ABL2 (Homo sapiens, UniProt P42684).
In assay [14] the target is NUAK1 (Homo sapiens, UniProt O60285).
The target of assay [15] is STK35 (Homo sapiens, UniProt Q8TDR2).
Assay [16] addresses STK17A (Homo sapiens, UniProt Q9UEE5).
Assay [17] deals with CIT (Homo sapiens, UniProt O14578).
Assay [18] has as its target NLK (Homo sapiens, UniProt Q9UBE8).
The target of assay [19] is DSTYK (Homo sapiens, UniProt Q6XUX3).
Assay [20] concerns the target IRAK4 (Homo sapiens, UniProt Q9NWZ3).
The target of assay [21] is MAP4K5 (Homo sapiens, UniProt Q9Y4K4).

Chain of SLK (Q9H2G2 whole entry): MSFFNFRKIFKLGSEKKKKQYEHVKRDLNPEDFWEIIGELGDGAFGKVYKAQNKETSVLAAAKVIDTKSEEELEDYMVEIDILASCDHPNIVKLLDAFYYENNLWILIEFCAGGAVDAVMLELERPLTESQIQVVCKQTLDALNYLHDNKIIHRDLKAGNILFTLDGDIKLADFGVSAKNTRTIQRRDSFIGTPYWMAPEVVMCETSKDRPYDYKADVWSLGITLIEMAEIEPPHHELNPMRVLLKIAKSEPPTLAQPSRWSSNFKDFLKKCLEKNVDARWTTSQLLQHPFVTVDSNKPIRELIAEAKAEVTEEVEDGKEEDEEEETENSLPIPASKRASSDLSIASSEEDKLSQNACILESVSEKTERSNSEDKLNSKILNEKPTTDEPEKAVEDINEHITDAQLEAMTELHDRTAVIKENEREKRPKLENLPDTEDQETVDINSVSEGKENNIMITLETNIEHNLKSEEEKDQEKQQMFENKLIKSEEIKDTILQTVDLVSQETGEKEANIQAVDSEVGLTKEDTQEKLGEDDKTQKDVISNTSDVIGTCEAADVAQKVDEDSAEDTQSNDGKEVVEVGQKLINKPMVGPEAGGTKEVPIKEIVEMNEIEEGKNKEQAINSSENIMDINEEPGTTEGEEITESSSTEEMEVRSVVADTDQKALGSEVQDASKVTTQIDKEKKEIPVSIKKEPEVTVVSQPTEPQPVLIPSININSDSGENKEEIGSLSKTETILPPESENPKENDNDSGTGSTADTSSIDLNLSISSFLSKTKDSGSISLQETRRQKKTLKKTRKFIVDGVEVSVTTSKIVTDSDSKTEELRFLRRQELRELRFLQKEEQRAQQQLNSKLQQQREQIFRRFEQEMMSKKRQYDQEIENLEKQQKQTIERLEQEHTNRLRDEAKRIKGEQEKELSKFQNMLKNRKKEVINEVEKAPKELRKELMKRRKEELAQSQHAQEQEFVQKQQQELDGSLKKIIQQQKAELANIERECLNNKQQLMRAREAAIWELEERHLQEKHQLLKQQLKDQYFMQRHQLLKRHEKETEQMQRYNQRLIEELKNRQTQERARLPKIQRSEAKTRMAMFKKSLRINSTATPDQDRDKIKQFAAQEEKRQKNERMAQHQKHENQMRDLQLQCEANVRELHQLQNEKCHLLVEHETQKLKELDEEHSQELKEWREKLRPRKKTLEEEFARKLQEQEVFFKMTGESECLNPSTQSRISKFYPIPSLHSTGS
Chain of STK35 (Q8TDR2 whole entry): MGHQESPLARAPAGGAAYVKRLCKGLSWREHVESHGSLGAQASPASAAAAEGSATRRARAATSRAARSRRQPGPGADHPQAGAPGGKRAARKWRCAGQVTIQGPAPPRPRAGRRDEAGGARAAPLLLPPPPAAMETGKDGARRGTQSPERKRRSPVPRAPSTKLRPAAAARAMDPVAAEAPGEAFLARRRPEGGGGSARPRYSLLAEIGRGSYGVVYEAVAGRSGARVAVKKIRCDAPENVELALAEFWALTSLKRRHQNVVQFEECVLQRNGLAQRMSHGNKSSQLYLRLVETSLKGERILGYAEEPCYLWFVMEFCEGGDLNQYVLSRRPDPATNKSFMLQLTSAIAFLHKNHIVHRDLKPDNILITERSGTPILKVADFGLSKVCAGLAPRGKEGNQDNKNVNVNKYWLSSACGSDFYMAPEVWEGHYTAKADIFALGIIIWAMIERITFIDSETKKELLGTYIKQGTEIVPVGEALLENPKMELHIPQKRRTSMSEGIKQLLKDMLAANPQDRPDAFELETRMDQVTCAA
Chain of NLK (Q9UBE8 whole entry): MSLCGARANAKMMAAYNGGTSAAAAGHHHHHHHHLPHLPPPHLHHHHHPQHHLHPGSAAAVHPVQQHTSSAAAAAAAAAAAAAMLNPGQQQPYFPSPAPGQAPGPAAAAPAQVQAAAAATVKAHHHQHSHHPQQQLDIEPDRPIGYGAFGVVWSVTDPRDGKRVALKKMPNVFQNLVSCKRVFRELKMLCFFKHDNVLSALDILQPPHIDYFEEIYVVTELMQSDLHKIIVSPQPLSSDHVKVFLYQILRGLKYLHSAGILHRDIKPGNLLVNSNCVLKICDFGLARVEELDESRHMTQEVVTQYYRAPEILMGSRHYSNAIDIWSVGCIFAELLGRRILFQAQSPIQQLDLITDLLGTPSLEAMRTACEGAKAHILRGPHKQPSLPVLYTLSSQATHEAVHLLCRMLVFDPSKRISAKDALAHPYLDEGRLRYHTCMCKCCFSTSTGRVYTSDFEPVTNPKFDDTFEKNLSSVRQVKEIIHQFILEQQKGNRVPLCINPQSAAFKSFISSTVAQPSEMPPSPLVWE
Chain of MKNK2 (Q9HBH9 whole entry): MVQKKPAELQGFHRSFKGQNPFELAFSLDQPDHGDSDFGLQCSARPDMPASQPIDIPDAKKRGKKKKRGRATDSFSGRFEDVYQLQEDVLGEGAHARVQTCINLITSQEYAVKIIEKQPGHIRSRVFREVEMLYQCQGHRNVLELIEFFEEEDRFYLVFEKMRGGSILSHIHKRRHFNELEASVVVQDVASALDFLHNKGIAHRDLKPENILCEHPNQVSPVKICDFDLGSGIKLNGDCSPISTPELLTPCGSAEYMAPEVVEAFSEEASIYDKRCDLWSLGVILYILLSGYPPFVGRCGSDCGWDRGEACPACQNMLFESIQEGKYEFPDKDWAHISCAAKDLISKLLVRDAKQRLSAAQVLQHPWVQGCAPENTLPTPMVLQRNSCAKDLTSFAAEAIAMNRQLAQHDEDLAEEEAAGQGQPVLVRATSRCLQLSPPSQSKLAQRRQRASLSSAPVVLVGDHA
Chain of BMPR1A (P36894 whole entry): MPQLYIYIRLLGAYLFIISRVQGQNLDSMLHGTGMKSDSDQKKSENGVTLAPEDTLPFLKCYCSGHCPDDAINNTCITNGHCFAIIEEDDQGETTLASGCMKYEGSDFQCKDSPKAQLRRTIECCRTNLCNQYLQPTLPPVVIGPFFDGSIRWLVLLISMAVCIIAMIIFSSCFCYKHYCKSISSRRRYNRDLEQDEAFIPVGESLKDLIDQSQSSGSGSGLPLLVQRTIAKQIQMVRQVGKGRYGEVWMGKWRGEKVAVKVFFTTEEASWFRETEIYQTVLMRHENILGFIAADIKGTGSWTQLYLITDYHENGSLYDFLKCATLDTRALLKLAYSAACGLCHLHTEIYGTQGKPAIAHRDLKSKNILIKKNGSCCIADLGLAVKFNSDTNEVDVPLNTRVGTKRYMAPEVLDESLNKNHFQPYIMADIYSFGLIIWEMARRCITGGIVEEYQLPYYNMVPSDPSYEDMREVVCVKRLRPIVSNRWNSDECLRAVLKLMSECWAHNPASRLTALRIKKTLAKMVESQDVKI
Chain of LCK (P06239 whole entry): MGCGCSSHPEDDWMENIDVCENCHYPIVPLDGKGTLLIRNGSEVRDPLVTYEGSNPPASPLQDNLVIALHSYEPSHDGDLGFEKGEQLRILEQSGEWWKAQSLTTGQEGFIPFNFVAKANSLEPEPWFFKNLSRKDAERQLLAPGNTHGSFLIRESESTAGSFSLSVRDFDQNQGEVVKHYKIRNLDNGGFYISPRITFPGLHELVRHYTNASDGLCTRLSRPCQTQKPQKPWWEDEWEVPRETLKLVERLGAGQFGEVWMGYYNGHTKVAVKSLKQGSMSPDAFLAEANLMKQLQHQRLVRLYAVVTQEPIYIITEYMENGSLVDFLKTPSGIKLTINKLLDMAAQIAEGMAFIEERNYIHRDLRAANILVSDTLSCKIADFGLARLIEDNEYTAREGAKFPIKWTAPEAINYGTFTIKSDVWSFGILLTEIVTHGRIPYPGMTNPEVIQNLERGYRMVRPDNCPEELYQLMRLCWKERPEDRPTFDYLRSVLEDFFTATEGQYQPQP
Chain of SIK1 (P57059 whole entry): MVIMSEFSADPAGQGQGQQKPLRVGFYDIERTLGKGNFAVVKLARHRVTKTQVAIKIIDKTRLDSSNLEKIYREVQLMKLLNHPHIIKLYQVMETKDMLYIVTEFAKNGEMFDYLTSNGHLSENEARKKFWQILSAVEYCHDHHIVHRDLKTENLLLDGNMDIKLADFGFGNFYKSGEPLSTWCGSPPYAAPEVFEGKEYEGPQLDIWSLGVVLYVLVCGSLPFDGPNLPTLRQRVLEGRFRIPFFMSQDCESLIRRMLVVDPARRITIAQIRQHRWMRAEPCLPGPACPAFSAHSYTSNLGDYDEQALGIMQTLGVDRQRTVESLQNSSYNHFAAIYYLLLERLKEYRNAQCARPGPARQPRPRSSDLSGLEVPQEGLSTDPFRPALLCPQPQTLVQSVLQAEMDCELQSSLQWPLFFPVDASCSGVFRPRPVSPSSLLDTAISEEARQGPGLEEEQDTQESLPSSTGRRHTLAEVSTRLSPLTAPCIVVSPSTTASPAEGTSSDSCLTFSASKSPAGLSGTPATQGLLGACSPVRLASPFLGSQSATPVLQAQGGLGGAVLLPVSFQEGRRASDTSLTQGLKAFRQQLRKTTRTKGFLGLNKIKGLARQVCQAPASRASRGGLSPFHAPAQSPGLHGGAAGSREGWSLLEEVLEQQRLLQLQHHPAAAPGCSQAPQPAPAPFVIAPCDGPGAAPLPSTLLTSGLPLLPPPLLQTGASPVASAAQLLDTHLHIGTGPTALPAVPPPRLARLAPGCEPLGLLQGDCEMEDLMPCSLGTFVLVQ
Chain of STK17A (Q9UEE5 whole entry): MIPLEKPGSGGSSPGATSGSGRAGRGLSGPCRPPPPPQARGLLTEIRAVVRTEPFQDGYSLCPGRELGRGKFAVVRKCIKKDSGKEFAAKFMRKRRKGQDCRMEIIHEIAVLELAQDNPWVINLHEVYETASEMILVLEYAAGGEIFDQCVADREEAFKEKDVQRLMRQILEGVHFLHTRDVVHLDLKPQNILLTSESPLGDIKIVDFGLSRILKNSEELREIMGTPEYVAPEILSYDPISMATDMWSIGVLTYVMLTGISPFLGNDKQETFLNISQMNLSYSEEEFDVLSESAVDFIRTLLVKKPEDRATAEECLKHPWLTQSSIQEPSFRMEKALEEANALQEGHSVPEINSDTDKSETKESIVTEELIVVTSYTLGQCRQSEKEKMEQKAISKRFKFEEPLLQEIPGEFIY

On to `COc1ccccc1-c1n[nH]c2nc(N[C@H]3CC[C@H](NS(=O)(=O)CCC(F)(F)F)CC3)nc(OC)c12` [compound 31, 3,3,3-Trifluoro-N-(trans-4-((4-methoxy-3-(2-methoxyphenyl)-1H-pyrazolo[3,4-d]pyrimidin-6-yl)amino)cyclohexyl)propane-1-sulfonamide], for which the IC50 in assay [1] is 3 µM; in assay [2], not below 20 µM; in [3], not below 20 µM; in [4], not below 20 µM; in [5] it was not below 20 µM; in assay [6], not below 20 µM. Besides, the IC50 in [7], in [8], in assay [9], in assay [10], in assay [11] and in assay [12] was not below 20 µM each time. Moreover, the IC50 in assay [13] is not below 20 µM; in assay [14], not below 20 µM; in assay [15], not below 20 µM; in assay [16], not below 20 µM; in [17], not below 20 µM; in assay [18] it was 3.4 µM. The IC50 in [19], in [20] and in assay [21] was not below 20 µM throughout.
